Columns and labels:
Format in all cases: functional
[1] = tested on: Pseudoperonospora cubensis; assay: Fungicidal activity against Pseudoperonospora cubensis assessed as cucumber downy mildew disease control at 31.3 ppm foliar application 24 hr before inoculation on upper surface of leaf by preventive manner
Thanatephorus cucumeris [2] = assay: Fungicidal activity against Thanatephorus cucumeris assessed as rice sheath blight disease control at 7.8 ppm foliar application for 24 hr before inoculation at 26 +- 2 measured after 5 days by preventive manner
Podosphaera fuliginea [3] = assay: Fungicidal activity against Podosphaera fuliginea assessed as cucumber powdery mildew control under greenhouse at 2 ppm foliar application 24 hr before inoculation on upper surface of leaf at 23 +/- 2 degC by preventive manner
Botrytis cinerea [4] = assay: Fungicidal activity against Botryotinia fuckeliana assessed as cucumber gray mold disease control at 31.3 ppm foliar application 24 hr before inoculation at 22 +/- 2 degC measured after 3 days by preventive manner
Podosphaera fuliginea [5] = assay: Fungicidal activity against Podosphaera fuliginea assessed as cucumber powdery mildew control under greenhouse at 7.8 ppm foliar application 24 hr before inoculation on upper surface of leaf at 23 +/- 2 degC by preventive manner
Botrytis cinerea [6] = assay: Fungicidal activity against Botryotinia fuckeliana assessed as cucumber gray mold disease control at 2 ppm foliar application 24 hr before inoculation at 22 +/- 2 degC measured after 3 days by preventive manner
[7] = tested on: Pseudoperonospora cubensis; assay: Fungicidal activity against Pseudoperonospora cubensis assessed as cucumber downy mildew disease control at 125 ppm foliar application 24 hr before inoculation on upper surface of leaf by preventive manner
Podosphaera fuliginea [8] = assay: Fungicidal activity against Podosphaera fuliginea assessed as cucumber powdery mildew control under greenhouse at 125 ppm foliar application 24 hr before inoculation on upper surface of leaf at 23 +/- 2 degC by preventive manner
Podosphaera fuliginea [9] = assay: Fungicidal activity against Podosphaera fuliginea assessed as cucumber powdery mildew control under greenhouse at 31.3 ppm foliar application 24 hr before inoculation on upper surface of leaf at 23 +/- 2 degC by preventive manner
Botrytis cinerea [10] = assay: Fungicidal activity against Botryotinia fuckeliana assessed as cucumber gray mold disease control at 125 ppm foliar application 24 hr before inoculation at 22 +/- 2 degC measured after 3 days by preventive manner
[11] = tested on: Pseudoperonospora cubensis; assay: Fungicidal activity against Pseudoperonospora cubensis assessed as cucumber downy mildew disease control at 7.8 ppm foliar application 24 hr before inoculation on upper surface of leaf by preventive manner
Botrytis cinerea [12] = assay: Fungicidal activity against Botryotinia fuckeliana assessed as cucumber gray mold disease control at 7.8 ppm foliar application 24 hr before inoculation at 22 +/- 2 degC measured after 3 days by preventive manner
[13] = tested on: Pseudoperonospora cubensis; assay: Fungicidal activity against Pseudoperonospora cubensis assessed as cucumber downy mildew disease control at 2 ppm foliar application 24 hr before inoculation on upper surface of leaf by preventive manner
Thanatephorus cucumeris [14] = assay: Fungicidal activity against Thanatephorus cucumeris assessed as rice sheath blight disease control at 31.3 ppm foliar application for 24 hr before inoculation at 26 +- 2 measured after 5 days by preventive manner
Thanatephorus cucumeris [15] = assay: Fungicidal activity against Thanatephorus cucumeris assessed as rice sheath blight disease control at 2 ppm foliar application for 24 hr before inoculation at 26 +- 2 measured after 5 days by preventive manner
Thanatephorus cucumeris [16] = assay: Fungicidal activity against Thanatephorus cucumeris assessed as rice sheath blight disease control at 125 ppm foliar application for 24 hr before inoculation at 26 +- 2 measured after 5 days by preventive manner
Podosphaera fuliginea [17] = assay: Fungicidal activity against Podosphaera fuliginea assessed as cucumber powdery mildew control under greenhouse at 31.3 ppm foliar application 24 hr after inoculation on upper surface of leaf at 23 +/- 2 degC by curative manner
[18] = tested on: Pseudoperonospora cubensis; assay: Fungicidal activity against Pseudoperonospora cubensis assessed as cucumber downy mildew disease control at 125 ppm foliar application 24 hr after inoculation on upper surface of leaf by curative manner
[19] = tested on: Pseudoperonospora cubensis; assay: Fungicidal activity against Pseudoperonospora cubensis assessed as cucumber downy mildew disease control at 2 ppm foliar application 24 hr after inoculation on upper surface of leaf by curative manner
[20] = tested on: Pseudoperonospora cubensis; assay: Fungicidal activity against Pseudoperonospora cubensis assessed as cucumber downy mildew disease control at 31.3 ppm foliar application 24 hr after inoculation on upper surface of leaf by curative manner
Botrytis cinerea [21] = assay: Fungicidal activity against Botryotinia fuckeliana assessed as cucumber gray mold disease control at 31.3 ppm foliar application 24 hr after inoculation at 22 +/- 2 degC measured after 3 days by curative manner
Podosphaera fuliginea [22] = assay: Fungicidal activity against Podosphaera fuliginea assessed as cucumber powdery mildew control under greenhouse at 7.8 ppm foliar application 24 hr after inoculation on upper surface of leaf at 23 +/- 2 degC by curative manner
Podosphaera fuliginea [23] = assay: Fungicidal activity against Podosphaera fuliginea assessed as cucumber powdery mildew control under greenhouse at 2 ppm foliar application 24 hr after inoculation on upper surface of leaf at 23 +/- 2 degC by curative manner
Botrytis cinerea [24] = assay: Fungicidal activity against Botryotinia fuckeliana assessed as cucumber gray mold disease control at 2 ppm foliar application 24 hr after inoculation at 22 +/- 2 degC measured after 3 days by curative manner
Podosphaera fuliginea [25] = assay: Fungicidal activity against Podosphaera fuliginea assessed as cucumber powdery mildew control under greenhouse at 125 ppm foliar application 24 hr after inoculation on upper surface of leaf at 23 +/- 2 degC by curative manner
Botrytis cinerea [26] = assay: Fungicidal activity against Botryotinia fuckeliana assessed as cucumber gray mold disease control at 7.8 ppm foliar application 24 hr after inoculation at 22 +/- 2 degC measured after 3 days by curative manner
Botrytis cinerea [27] = assay: Fungicidal activity against Botryotinia fuckeliana assessed as cucumber gray mold disease control at 125 ppm foliar application 24 hr after inoculation at 22 +/- 2 degC measured after 3 days by curative manner
[28] = tested on: Pseudoperonospora cubensis; assay: Fungicidal activity against Pseudoperonospora cubensis assessed as cucumber downy mildew disease control at 7.8 ppm foliar application 24 hr after inoculation on upper surface of leaf by curative manner
Pyricularia oryzae [29] = assay: Fungicidal activity against Magnaporthe oryzae assessed as rice blast disease control at 2.5 ppm submerged application measured after 7 days
Pyricularia oryzae [30] = assay: Fungicidal activity against Magnaporthe oryzae assessed as rice blast disease control at 0.16 ppm submerged application measured after 7 days
Pyricularia oryzae [31] = assay: Fungicidal activity against Magnaporthe oryzae assessed as rice blast disease control at 10 ppm submerged application measured after 7 days
Pyricularia oryzae [32] = assay: Fungicidal activity against Magnaporthe oryzae assessed as rice blast disease control at 0.63 ppm submerged application measured after 7 days

Row | SMILES | Activity [1] | Activity (Thanatephorus cucumeris [2]) | Activity (Podosphaera fuliginea [3]) | Activity (Botrytis cinerea [4]) | Activity (Podosphaera fuliginea [5]) | Activity (Botrytis cinerea [6]) | Activity [7] | Activity (Podosphaera fuliginea [8]) | Activity (Podosphaera fuliginea [9]) | Activity (Botrytis cinerea [10]) | Activity [11] | Activity (Botrytis cinerea [12]) | Activity [13] | Activity (Thanatephorus cucumeris [14]) | Activity (Thanatephorus cucumeris [15]) | Activity (Thanatephorus cucumeris [16]) | Activity (Podosphaera fuliginea [17]) | Activity (Podosphaera fuliginea [22]) | Activity (Podosphaera fuliginea [23]) | Activity (Podosphaera fuliginea [25]) | other results
1 | CNC(=O)/C(=N/OC)c1cccc([N+](=O)[O-])c1Oc1ccccc1 | <70% | <70% | <70% | <70% | <70% | <70% | <70% | <70% | <70% | <70% | <70% | <70% | <70% | <70% | <70% | <70% |  |  |  |  | 
2 | CNC(=O)/C(=N/OC)c1cc([Si](C)(C)C)ccc1Oc1ccccc1 | <70% | <70% | <70% | <70% | <70% | <70% | <70% | <70% | <70% | <70% | <70% | <70% | <70% | <70% | <70% | <70% |  |  |  |  | 
3 | CNC(=O)/C(=N/OC)c1cc(C(F)(F)F)ccc1Oc1ccccc1 | <70% | <70% | <70% | <70% | <70% | <70% | <70% | <70% | <70% | <70% | <70% | <70% | <70% | <70% | <70% | <70% |  |  |  |  | 
4 | CNC(=O)/C(=N/OC)c1ccccc1Oc1ccccc1[N+](=O)[O-] | <70% | <70% | <70% | <70% | <70% | <70% | <70% | <70% | <70% | <70% | <70% | <70% | <70% | <70% | <70% | <70% | <50% | <50% | <50% | <50% | Activity [18]: <50%; Activity [19]: <50%; Activity [20]: <50%; Activity (Botrytis cinerea [21]): <50%; Activity (Botrytis cinerea [24]): <50%; Activity (Botrytis cinerea [26]): <50%; Activity (Botrytis cinerea [27]): <50%; Activity [28]: <50%
5 | C#CCOc1cccc(Oc2ccccc2/C(=N\OC)C(=O)NC)c1 | 70% | 70% | 70% |  | 70% |  | 70% | 70% | 70% |  | 70% |  | 70% | 70% | 70% | 70% | <50% | <50% | <50% | <50% | Activity (Pyricularia oryzae [29]): 50%; Activity [18]: <50%; Activity [19]: <50%; Activity [20]: <50%; Activity (Botrytis cinerea [21]): 50%; Activity (Botrytis cinerea [24]): 50%; Activity (Botrytis cinerea [26]): 50%; Activity (Pyricularia oryzae [30]): 50%; Activity (Botrytis cinerea [27]): 50%; Activity (Pyricularia oryzae [31]): 50%; Activity [28]: <50%; Activity (Pyricularia oryzae [32]): 50%
6 | CNC(=O)/C(=N/OC)c1ccccc1Oc1cccc(OC)c1 | 70% | 70% | 70% |  | 70% |  | 70% | 70% | 70% |  | 70% |  | 70% | 70% | 70% | 70% | 50% | 50% | 50% | 50% | Activity (Pyricularia oryzae [29]): 50%; Activity [18]: <50%; Activity [19]: <50%; Activity [20]: <50%; Activity (Botrytis cinerea [21]): 50%; Activity (Botrytis cinerea [24]): 50%; Activity (Botrytis cinerea [26]): 50%; Activity (Pyricularia oryzae [30]): 50%; Activity (Botrytis cinerea [27]): 50%; Activity (Pyricularia oryzae [31]): 50%; Activity [28]: <50%; Activity (Pyricularia oryzae [32]): 50%
7 | CNC(=O)/C(=N/OC)c1ccccc1Oc1ccc(OCc2ccccc2)cc1 | <70% | <70% | <70% | <70% | <70% | <70% | <70% | <70% | <70% | <70% | <70% | <70% | <70% | <70% | <70% | <70% | <50% | <50% | <50% | <50% | Activity (Pyricularia oryzae [29]): 50%; Activity (Pyricularia oryzae [30]): 50%; Activity (Pyricularia oryzae [31]): 50%; Activity (Pyricularia oryzae [32]): 50%
8 | CNC(=O)/C(=N/OC)c1ccccc1Oc1ccc(C(C)(C)C)cc1 | <70% | 70% | 70% |  | 70% |  | <70% | 70% | 70% |  | <70% |  | <70% | 70% | 70% | 70% | 50% | 50% | 50% | 50% | Activity (Pyricularia oryzae [29]): 50%; Activity [18]: <50%; Activity [19]: <50%; Activity [20]: <50%; Activity (Botrytis cinerea [21]): 50%; Activity (Botrytis cinerea [24]): 50%; Activity (Botrytis cinerea [26]): 50%; Activity (Pyricularia oryzae [30]): 50%; Activity (Botrytis cinerea [27]): 50%; Activity (Pyricularia oryzae [31]): 50%; Activity [28]: <50%; Activity (Pyricularia oryzae [32]): 50%

— ChEMBL document CHEMBL3045600, “Synthesis and Fungicidal Activities of Phenoxyphenyl Alkoxyiminoacetamide Derivatives” (J Pestic Sci, 1998)
